Experiments:
Integrin alpha-4/beta-1 [1] = molecular target: T1, Integrin alpha-4/beta-1 (Homo sapiens, UniProt P05556+P13612); assay: Inhibition of VLA-4 receptor of Jurkat cells in BURJ assay; assay type: cell-based
Integrin alpha-4/beta-1 [2] = molecular target: T1, Integrin alpha-4/beta-1; assay: Percentage binding to VLA-4 receptor of Jurkat cells; assay type: cell-based
[3] = Plasma clearance in rat upon intravenous administration of 5 mg/kg; assay type: ADME, organism-based; parameters: dose 5 mg/kg, route intravenous
[4] = Half-life in rat upon intravenous administration of 5 mg/kg; assay type: ADME, organism-based; parameters: dose 5 mg/kg, route intravenous; conditions: in vivo
[5] = Volume of distribution of compound in rat plasma upon intravenous administration of 5 mg/kg; assay type: ADME, organism-based; parameters: dose 5 mg/kg, route intravenous
[6] = Area under plasma concentration curve in rat upon intravenous administration of 5 mg/kg; assay type: ADME, organism-based; parameters: dose 5 mg/kg, route intravenous
[7] = Maximum concentration in rat plasma upon peroral administration of 5 mg/kg; assay type: ADME, organism-based; parameters: dose 5 mg/kg, route oral; conditions: po
[8] = Oral bioavailability in rat upon oral administration of 5 mg/kg; conditions: in vivo

T1 sequence (P05556 whole entry): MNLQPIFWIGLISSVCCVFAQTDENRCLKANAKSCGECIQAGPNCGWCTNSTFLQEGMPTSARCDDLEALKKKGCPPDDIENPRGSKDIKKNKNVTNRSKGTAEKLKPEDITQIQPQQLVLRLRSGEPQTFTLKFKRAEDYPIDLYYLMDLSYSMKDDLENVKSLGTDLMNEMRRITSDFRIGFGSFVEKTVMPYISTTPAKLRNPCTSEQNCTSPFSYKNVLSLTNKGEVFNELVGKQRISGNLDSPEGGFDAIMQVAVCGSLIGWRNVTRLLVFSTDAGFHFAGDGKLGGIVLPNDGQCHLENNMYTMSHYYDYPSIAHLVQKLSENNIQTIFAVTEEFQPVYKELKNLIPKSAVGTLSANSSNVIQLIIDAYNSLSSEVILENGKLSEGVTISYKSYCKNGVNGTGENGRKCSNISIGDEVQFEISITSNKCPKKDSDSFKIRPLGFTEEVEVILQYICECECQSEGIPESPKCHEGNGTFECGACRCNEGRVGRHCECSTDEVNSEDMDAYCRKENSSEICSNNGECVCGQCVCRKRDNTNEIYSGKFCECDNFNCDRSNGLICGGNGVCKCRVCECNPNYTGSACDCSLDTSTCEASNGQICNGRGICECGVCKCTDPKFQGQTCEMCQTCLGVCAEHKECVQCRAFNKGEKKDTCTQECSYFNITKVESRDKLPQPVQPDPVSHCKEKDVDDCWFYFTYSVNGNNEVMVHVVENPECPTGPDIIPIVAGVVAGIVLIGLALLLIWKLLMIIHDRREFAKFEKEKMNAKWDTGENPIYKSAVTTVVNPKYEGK
T1 sequence (P13612 whole entry): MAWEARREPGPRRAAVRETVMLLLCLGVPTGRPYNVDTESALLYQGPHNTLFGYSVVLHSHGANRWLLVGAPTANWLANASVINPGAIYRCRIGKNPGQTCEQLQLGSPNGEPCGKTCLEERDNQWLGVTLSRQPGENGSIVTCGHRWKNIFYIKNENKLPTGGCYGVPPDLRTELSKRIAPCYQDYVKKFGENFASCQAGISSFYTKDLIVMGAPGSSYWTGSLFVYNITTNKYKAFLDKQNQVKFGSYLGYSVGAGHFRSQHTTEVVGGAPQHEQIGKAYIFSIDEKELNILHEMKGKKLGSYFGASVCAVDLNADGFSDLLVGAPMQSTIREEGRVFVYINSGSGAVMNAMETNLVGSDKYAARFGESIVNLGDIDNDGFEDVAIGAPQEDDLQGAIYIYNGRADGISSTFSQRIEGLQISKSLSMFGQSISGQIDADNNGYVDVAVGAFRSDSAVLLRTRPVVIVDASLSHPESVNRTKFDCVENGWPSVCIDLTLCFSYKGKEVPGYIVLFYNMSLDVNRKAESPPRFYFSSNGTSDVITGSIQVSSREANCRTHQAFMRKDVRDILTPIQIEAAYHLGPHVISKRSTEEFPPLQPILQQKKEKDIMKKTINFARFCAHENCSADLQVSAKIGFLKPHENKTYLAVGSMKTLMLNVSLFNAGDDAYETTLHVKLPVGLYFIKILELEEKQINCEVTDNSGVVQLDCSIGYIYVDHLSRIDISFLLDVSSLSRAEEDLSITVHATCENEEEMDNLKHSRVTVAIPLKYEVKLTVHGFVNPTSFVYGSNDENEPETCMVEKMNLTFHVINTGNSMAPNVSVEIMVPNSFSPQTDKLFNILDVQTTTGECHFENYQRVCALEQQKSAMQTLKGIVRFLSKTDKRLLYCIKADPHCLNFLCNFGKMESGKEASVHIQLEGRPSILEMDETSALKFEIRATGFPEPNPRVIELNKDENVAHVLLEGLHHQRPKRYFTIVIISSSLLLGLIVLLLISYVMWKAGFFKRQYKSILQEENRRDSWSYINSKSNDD

SMILES | IC50 (Integrin alpha-4/beta-1 [1]) [nM] | Percent binding to VLA-4 (Integrin alpha-4/beta-1 [2]) [%] | clearance [3] [mL/min/kg] | half-life [4] [h] | Vd [5] [L/kg] | AUC [6] [µM·h] | Cmax [7] [nM] | bioavailability [8] [%]
O=C(Nc1ccc(C[C@H](NC(=O)[C@@H]2CCCN2S(=O)(=O)c2cc(Cl)cc(Cl)c2)C(=O)NC(=O)C(F)(F)F)cc1)c1c(Cl)cncc1Cl | 10 | 0 | – | – | – | – | – | –
CCOC(=O)CC(=O)[C@H](Cc1ccc(NC(=O)c2c(Cl)cncc2Cl)cc1)NC(=O)[C@@H]1CCCN1S(=O)(=O)c1cc(Cl)cc(Cl)c1 | 13 | 10 | – | – | – | – | – | –
COc1cccc(OC)c1-c1ccc(C[C@@H](Cn2oc(=O)[nH]c2=O)NC(=O)[C@@H]2CCCN2S(=O)(=O)c2cc(Cl)cc(Cl)c2)cc1 | 6000 | – | – | – | – | – | – | –
O=C(Nc1ccc(C[C@H](NC(=O)[C@@H]2CCCN2S(=O)(=O)c2cc(Cl)cc(Cl)c2)C(=O)NS(=O)(=O)C(F)(F)F)cc1)c1c(Cl)cncc1Cl | 11 | 0 | – | – | – | – | – | –

Second part, the compound after the results:

IC50 (Integrin alpha-4/beta-1 [1]) [nM] | Percent binding to VLA-4 (Integrin alpha-4/beta-1 [2]) [%] | clearance [3] [mL/min/kg] | half-life [4] [h] | Vd [5] [L/kg] | AUC [6] [µM·h] | Cmax [7] [nM] | bioavailability [8] [%] | SMILES
300 | 6 | – | – | – | – | – | – | O=C(Nc1ccc(C[C@H](NC(=O)[C@@H]2CCCN2S(=O)(=O)c2cc(Cl)cc(Cl)c2)c2cc(O)[nH]n2)cc1)c1c(Cl)cncc1Cl
– | 8 | – | – | – | – | – | – | O=C(Nc1ccc(C[C@H](NC(=O)[C@@H]2CCCN2S(=O)(=O)c2cc(Cl)cc(Cl)c2)c2cc(O)no2)cc1)c1c(Cl)cncc1Cl
60 | 0 | – | – | – | – | – | – | O=C(Nc1ccc(C[C@H](NC(=O)[C@@H]2CCCN2S(=O)(=O)c2cc(Cl)cc(Cl)c2)c2nnn[nH]2)cc1)c1c(Cl)cncc1Cl
20 | – | 37.6 | 2.85 | 1.25 | 3.51 | – | – | O=C(Nc1ccc(C[C@H](NC(=O)[C@@H]2CCCN2S(=O)(=O)c2cc(Cl)cc(Cl)c2)c2cc(=O)[nH]o2)cc1)c1c(Cl)cncc1Cl
12 | 0 | 60 | 2.78 | 2.61 | 2.01 | 6.1 | 0.19 | O=C(Nc1ccc(C[C@H](NC(=O)[C@@H]2CCCN2S(=O)(=O)c2cc(Cl)cc(Cl)c2)c2noc(O)n2)cc1)c1c(Cl)cncc1Cl
0.03 | 66 | 38.2 | 0.72 | 0.57 | 0.68 | 3.14 | – | O=C(Nc1ccc(C[C@H](NC(=O)[C@@H]2CCCN2S(=O)(=O)c2cc(Cl)cc(Cl)c2)C(=O)O)cc1)c1c(Cl)cncc1Cl

From ChEMBL document CHEMBL1142815, “Influence of acid surrogates toward potency of VLA-4 antagonist” (Bioorg Med Chem Lett, 2005)
